Consider 2 compounds from patent US20080090297A1, “Methods for determining the metal bioavailability of metal sources” (Novus International Inc., priority 2006, published 2008).

For series [1], the system named is metallothionein (MT) mRNA. The series can be described thus: Time course of zinc-induced expression of metallothionein in chicken jejunum, QRT-PCR. Type of series: in vivo. The source says: A total of 54 chickens were fed a low zinc/low copper milo starter diet for 10 days. On day 11 (t=Day 0), the birds were split into two groups: 18 were fed a corn-soy diet supplemented with 25 ppm copper oxide and no zinc (“Cu”) and 36 were fed a corn-soy diet supplemented with 25 ppm copper oxide and 70 ppm zinc from Zn(HMTBA)2 (“Cu+Zn(HMTBA)2”). On days 13 (t=Day 2), 16 (t=Day 5) and 19 (t=Day 8), three “Cu” and three “Cu+Zn(HMTBA)2” birds per day were weighed and sacrificed. The mid-jejunum was collected from each bird. The lumen was rinsed with 3-4 ml of cold saline, and each sample was divided into two pieces, with each piece being no larger than 0.5 cm in any direction. The two pieces from each bird were placed in separate microcentrifuge tubes containing 0.9 ml of RNAlater solution.
RNA was isolated (RNA from the two pieces from each bird were pooled), and 18S-normalized MT mRNA expression levels were measured by QRT-PCR as described in Example 1. The data are expressed as MT mRNA expression relative to the low zinc jejunum reference sample from Example 1.

For series [2], the system named is metallothionein (MT) mRNA. The series can be described thus: Bioavailability of different zinc compositions in chickens, MT mRNA in jejunum mucosal scrapings by QRT-PCR. The class given is in vivo, chicken. To be noted: 70 ppm zinc in corn-soy diet for 2 days (day 21 to 23); six birds per treatment; 18S-normalized; P≦0.05. As for the experimental part:
Chickens were fed a low zinc pre-feed diet for 20 days. On day 21, they were switched to a corn-soy diet supplemented with one of the following: 1) unsupplemented for zinc (control); 2) 70 ppm zinc from ZnOxide; 3) 70 ppm zinc from a zinc amino acid complex (Zn AAC); 4) 70 ppm zinc from Zn(HMTBA)2. On day 23, six birds from each treatment were weighed, sacrificed, and jejunum samples were collected. The lumen was rinsed with 3-4 ml of cold saline, the jejunum was cut open lengthwise, and the mucosal surface was scraped with a glass slide. Cell scrapings were collected into 0.9 ml of RNAlater. RNA was isolated as described in Example 1. QRT-PCR was performed as described in Example 1, and 18S-normalized MT mRNA expression was determined.

Series [3] relates to metallothionein (MT) mRNA. Description: Induction of metallothionein (MT) mRNA by zinc in chicken tissues, QRT-PCR. Type of series: in vivo. To be noted: high zinc diet (34 ppm basal + 64 ppm zinc from Zn(HMTBA)2) vs low zinc diet (34 ppm); day 29; normalized to 18S rRNA; one bird per group. The source says: Zinc treatment and sample collection. Upon hatching, chicks were placed on a moderately Zn-deficient starter diet. On day 13, they were switched to two different test diets: some were fed a low zinc diet with no zinc supplements (the diet contained 34 ppm zinc in the basal feedstuffs) and the rest were fed a high zinc diet comprising 34 ppm zinc in the feedstuffs and 64 ppm zinc from Zn(HMTBA)2 for a total of 98 ppm zinc. On day 29, a chicken from each group was sacrificed and the following tissues were collected: jejunum (small intestine), jejunum mucosal scrapings, liver, and kidney. The lumen of a 2-3 inch long jejunum section was rinsed with 3-4 ml of cold saline. The jejunum was cut open lengthwise and placed mucosa-side up on a clean cutting board. One piece of jejunum, no greater than 0.5 cm in any direction, was placed into a microcentrifuge tube containing 0.9 ml of RNAlater solution, and stored according to the manufacturer's instructions (Ambion, Austin Tex.). The jejunum section's remaining mucosal surface was scraped with a glass slide. Cell scrapings were collected and placed into 0.9 ml RNAlater. The other tissues were stored in RNAlater. RNA was isolated using the High Pure RNATissue Prep Kit (Roche Applied Science, Cat No 12033674001) following the manufacturer's instructions. The concentration of RNA was determined using a spectrophotometer, and the concentration of RNA was adjusted to a maximum of 0.5 mg/ml by dilution with elution buffer. The RNA samples were either used immediately, or frozen on dry ice and stored at −80° C. until use.
Reverse Transcriptase and Quantitative PCR. First strand cDNA synthesis was performed using the Transcriptor Reverse Transcriptase® (Roche Applied Science, Indianapolis, Ind., catalog #04379012001), using the instructions supplied by the manufacturer. Each first-strand synthesis reaction contained 0.5 μg of total RNA. The reverse transcription was performed in a thermocycler using the following program: a brief, 90 sec denaturation step at 65° C.; annealing for 30 sec at 40° C.; 30 min cDNA synthesis at 55° C.; and enzyme inactivation by 5 min denaturation at 85° C. The reaction product was concentrated by ethanol precipitation, rinsed and dried. The sample was then resuspended in 400 μl of nuclease-free water and A260/A280 was measured to ensure that cDNA concentration in each sample would fall within the range of concentration usable by the QRT-PCR assay.
MT mRNA and 18S rRNA levels were measured by QRT-PCR on a Roche LightCycler®, using the LightCycler® FastStart DNA Master HybProbe Kit (Roche Molecular Systems, Inc, Alameda, Calif., catalog #300324) using 0.5 μM of each primer and 0.2 μM of each TaqMan probe, as shown in Table 1. […]

Each structure is given as a SMILES string.

As to `CSCCC(O)C(=O)[O-].CSCCC(O)C(=O)[O-].[Zn+2]` (centres unmarked) [Zn(HMTBA)2], in series [1] (70 ppm zinc from Zn(HMTBA)2 + 25 ppm copper oxide vs 25 ppm copper oxide only, days 2, 5, 8, P=0.0077), the “MT mRNA expression in jejunum, overall effect of treatment” value is reported as “increased MT expression”. Also, the “MT mRNA expression in jejunum, difference between treatments by day” value in series [1] (Cu+Zn(HMTBA)2 vs Cu diet, three birds per treatment per day, days 2, 5 and 8) was “Significant differences in MT expression are seen between treatments on days 5 and 8”. Besides, the “levels of MT mRNA induced in jejunum mucosal scrapings” value in series [2] was “significantly greater than those induced by ZnOxide or the Zn AAC”. In series [3], the “fold induction of MT mRNA in jejunum” value was found to be 34 fold, the “fold induction of MT mRNA in jejunum mucosal scrapings” value was 125 fold, the “fold induction of MT mRNA in kidney” value turned out to be 9 fold and the “fold induction of MT mRNA in liver” value was determined as 19 fold.
On to `[O-2].[Zn+2]` [ZnOxide, zinc oxide, reference compound], for which the “levels of MT mRNA induced in jejunum mucosal scrapings” value in series [2] is reported as “not significantly greater than MT expression in the unsupplemented birds”.
